From US11607404B2, “Combinations of RAD51 and PARP inhibitors” (Cyteir Therapeutics, Inc., priority 2019, dated 2023)

Key:
[1] = tested on: Daudi cell line (AID positive); assay: Primary screening cell killing assay (Cell-Titer Glo, Day 7); format: cell-based; conditions: Homo sapiens, 168 h; Daudi cells (AID positive), cell death on Day 7; read-out: AID+ EC50
Protocol: Primary screening was a phenotypic screen that utilized the synthetic lethal interaction between AID and RAD51 to identify compounds that were both potent and on target. AID expressing cells are dependent upon RAD51 for survival; inhibiting RAD51 in AID positive cells results in a cytotoxic effect.
(§1) The first step was to set up a cell killing assay in the Daudi cell line (AID positive). A 96 well u-bottom plate was prepared by writing the experiment number, plate number, date and initials in the top right corner of the plate lid. With a sterile 300 ml reservoir, and 25 ml serological pipette, evaporation buffer media was pipetted into reservoir in 25 ml increments. Using the liquid handler, 150 ul of evaporation buffer media was pipetted from reservoir into rows A and H, and Columns 1 and 12 of the 96 well u-bottom plate. Cell cultures were counted to obtain the density of cells per ml, and the culture viability. The cell density information was used to obtain 1,000,000 cells from culture using a 5 mL serological pipette into an epi tube. The cell density information from the culture was used to calculate the number of cells and volume of media needed for the assay to seed 1250 cells in 130 ul of media per available culture well in the 96 well u-bottom plate. Rows B through F were used for cells (50 wells in total), with row G left for an empty media control. The calculation was overestimated by 10 mL to account for the dead volume in the 300 ml reservoir. Once the media volume was calculated, the appropriate volume of media was pipetted in 25 mL increments into the 250 mL bottle using a 25 mL serological pipette. The 250 ml bottle was capped tightly, and placed into a 37° C. water bath for 2 minutes. While the culture media was warming, 10 mL of fresh media was pipetted from the 500 mL culture media bottle into a sterile 25 mL reservoir. Using the Eppendorf multichannel pipette, 130 ul of media was piptted from the 25 mL reservoir into row G of the 96 well u-bottom plate. Once the 250 mL bottle of media was warmed, the volume of culture needed was pipetted into the bottle, and mixed gently with a 25 mL serological pipette as to not create bubbles, and then the contents of the bottle were pipetted into a new 300 mL reservoir. Using the liquid handler, 130 ul of culture was pipetted from the 300 mL reservoir into rows B through F of the 96 well u-bottom plate. Once the culture was added, the plate was placed into a 37° C. incubator until the compound master plate was prepared for use.
(§2) Two 96 well u-bottom plates were prepared by writing the master plate name in the upper right corner of the plate lid. Labeling one DMSO master and the other Media Master. The compounds of interest were obtained from the laboratory freezer, and placed into a 25 well storage box with a lid, and set the box aside. The compounds were vortexed after thawing but before use. Using an automatic multichannel pipette, 20 ul of 100% DMSO was pipetted into wells B3-B11 through G3-G11 of the DMSO master plate. For each compound on the master plate, 50 ul of the compound were pipetted in the appropriate well of row 2 (reference plate map to determine appropriate well). A serial dilution was prepared beginning by aspirating 20 ul from row 2 and mixing with row 3, repeating until row 11 was reached. Using the liquid handler, 194 ul of Daudi media was dispensed into wells B2-B11 through G2-G11 of the Media master plate. Using the liquid handler, 6 ul from the DMSO master plate was aspirated and dispensed into the media master plate, mixing 100 ul twice.
Compounds from master plate were then added to the culture plate. The culture plates were removed from the incubator, and set inside the biosafety cabinet. Using a liquid handler, 20 ul from wells B2 to B11 through G2 to G11 of master plate were aspirated, and dispensed into wells B2 to B11 through G2 to G11 of culture plate. This set was continued with each culture plate. […]

[2] = Human liver microsome stability; format: in vitro ADME; conditions: percentage of hepatic blood flow
Protocol: The stability of the claimed compounds was determined in the presences of human liver microsomes. The compounds were incubated with the microsomes at 37° C. for 45 minutes. Samples were analyzed using LC-MS/MS. Data analysis included half-life, clearance rate, and the percentage of hepatic blood flow (% QH) for each of the compounds in the different species.

[3] = tested on: ARPE19/HPV16 (HPV Immortalized RPE); assay: Cell line screen (potency assay); format: cell-based; conditions: ARPE-19, AICDA expression Negative
Protocol: as §1, §2
Compounds from master plate were then added to the culture plate. The culture plates were removed from the incubator, and set inside the biosafety cabinet. Using a liquid handler, 20 ul from wells B2 to B11 through G2 to G11 of master plate were aspirated, and dispensed into wells B2 to B11 through G2 to G11 of culture plate. This set was continued with each culture plate. Once the culture plates acquired their 20 ul of compound dilutions, they were placed back into the incubator, until their reads on Day 7 of experiment. Cell death was measured on Day 7 of the experiment using Cell-Titer Glo and a Promega Plate reader. […]

[4] = Pharmacokinetic (PK) study; format: in vivo, Rat; conditions: po @ 80 mg/kg (30% PEG400, 10% Vitamin E TPGS in water)
Protocol: PK studies in mice were used to determine the fate of the compounds in a whole organism. Rats were treated with the compounds either orally of via IV at the indicated doses and followed for up to 24 hours. Plasma samples were taken at different time points and analyzed by LC-MS.

[5] = tested on: HBCx12B model; assay: Tumor growth inhibition, subcutaneous engrafted tumor model; format: in vivo, mice; conditions: HRD Positive, RAD51 High, BRCA1 Meth, PALB2 WT, 67A 80 mg/kg QD, olaparib 100 mg/kg QD, combo both
Protocol: (§3) Immunodeficient mice were subcutaneously engrafted in the rear flank with the tumor cells. The tumors were allowed to grow to a size of about 100 to about 200 mm^3 prior to being randomized and grouped into treatment arms. For models […] through […] the four treatment arms were vehicle, Compound 67A at 80 mg/kg QD, olaparib at 100 mg/kg QD, and Compound 67A+Olaparib at 80 mg/kg QD and 100 mg/kg QD, respectively. For models J000101173 through TM00091 the treatment arms were vehicle, Compound 67A at 40 mg/kg QD, olaparib at 50 mg/kg QD, and Compound 67A+Olaparib at 40 mg/kg QD and 50 mg/kg QD, respectively. The tumors were measured either once weekly or twice weekly.
(§4) Percent Tumor Growth Inhibition (% TGI) was calculated by taking the mean volume of each of the treatment arms, and comparing the treatment arms to the vehicle arms using the following equation

[6] = tested on: HBCx16 model; assay: as above; format: in vivo, mice; conditions: HRD Positive, RAD51 High, BRCA1 Meth, PALB2 WT, 67A 80 mg/kg QD, olaparib 100 mg/kg QD, combo both
Protocol: as §3, §4

[7] = tested on: TM00090 model; assay: as above; format: in vivo, mice; conditions: HRD Positive, RAD51 Low, BRCA1 Meth, BRCA2 Mut, PALB2 WT, 67A 40 mg/kg QD, olaparib 50 mg/kg QD, combo both
Protocol: as §3, §4

[8] = tested on: TM00091 model; assay: as above; format: in vivo, mice; conditions: HRD Positive, RAD51 High, BRCA1 Mut, PALB2 WT, 67A 40 mg/kg QD, olaparib 50 mg/kg QD, combo both
Protocol: as §3, §4

With `CC(C)OC(=O)Nc1ccc(-c2cnc([C@H]3CC[C@H](NC(=O)OC(C)C)CC3)s2)c(S(=O)(=O)NC(C)(C)C)c1` [Compound 67A, trans-isopropylN-[3-(tert-butylsulfamoyl)-4-[2-[4-(isopropoxycarbonylamino)cyclohexyl]thiazol-5-yl]phenyl]carbamate] the EC50 [1] was ≤ 1 µM, the “Human Liver Microsome Stability % QH” value [2] was <20.3% and the EC50 [3] was > 10 µM. For the same compound, the “F (%) @ 5 mg/kg” value ([4]; Rat Female) was 86.5%, the “F (%) @ 5 mg/kg” value ([4]; Rat Male) was 46.9% and the “% TGI” value [5] was −3.27%. For the same compound, the “% TGI” value [6] was −22.45%, the “% TGI” value [7] was 51.82% and the “% TGI” value [8] was 27%.
